Laboratory results as given in patent publication US8575306B2, “Target and method for inhibition of bacterial RNA polymerase” (Rutgers, The State University of New Jersey, priority 2002, dated 2013).
Where a SMILES comes first, the peptide text is derived from it.

Assays:
[1] = test system: Strain DH5α transformed with a pRL663 derivative (substituted RNAP β′ subunit); assay: Minimum bacteriocidal concentration (MBC) assays, MccJ25-resistant rpoC mutants; assay type: cell-based, Escherichia coli; settings: for MBC (minimum bacteriocidal concentration): 2 hr at 37° C.
Protocol: (RNAP β′ subunit comprises nearly one-half of all residues of RNAP and comprises all residues of the RNAP secondary channel). Mutagenesis using error-prone PCR was performed (Zhou (1991) Nucl. Acids Res. 19, 6052; Zhou et al., (1993) Proc. Natl. Acad. Sci. USA 90, 6081-6085) of five DNA segments spanning the length of a plasmid-borne rpoC gene (Table 1). Overall, 20 mutagenesis reactions were performed, ˜100,000 candidates were analyzed, and 22 independent plasmid-linked MccJ25-resistant mutants were isolated (Table 1). […] Complementation assays indicate that all 22 MccJ25-resistant mutants can complement an rpoC^ts mutant for growth at the non-permissive temperature, confirming that each encodes a β′ derivative functional in transcription—indeed sufficiently functional in transcription to support viability (Table 2, column 4).
A saturation mutagenesis using a set often “doped” oligodeoxyribonucleotide primers, designed to introduce all possible nucleotide substitutions at all positions of all codons for residues that line the RNAP secondary channel was performed (sequences in Table 3; methods essentially as in the following references (Ner et al., (1988) DNA 7, 127-134; Hermes et al., (1989) Gene 84, 143-151; and Niu et al., (1994) J. Mol. Biol. 243, 595-602). In total, 23 mutagenesis reactions were performed, ˜40,000 candidates were analyzed, and 105 independent plasmid-linked MccJ25-resistant mutants were isolated and characterized (Table 4).

RNAP secondary channel = RNAP secondary channel (Escherichia coli, UniProt P0A8T7); assay: Fluorescence-resonance-energy-transfer experiments with a fluorochrome-labelled MccJ25 derivative; assay type: binding; settings: preliminary results
Chain of RNAP secondary channel (P0A7Z4 whole entry): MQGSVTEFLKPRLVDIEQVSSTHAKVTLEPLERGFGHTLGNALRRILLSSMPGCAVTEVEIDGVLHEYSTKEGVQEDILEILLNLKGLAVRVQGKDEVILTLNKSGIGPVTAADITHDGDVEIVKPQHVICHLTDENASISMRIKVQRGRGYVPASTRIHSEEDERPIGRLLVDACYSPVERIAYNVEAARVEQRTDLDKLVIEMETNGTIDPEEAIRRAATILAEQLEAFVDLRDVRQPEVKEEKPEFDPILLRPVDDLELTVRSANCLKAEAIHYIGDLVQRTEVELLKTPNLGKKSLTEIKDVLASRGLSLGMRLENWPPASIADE
Chain of RNAP secondary channel (P0A8T7 whole entry): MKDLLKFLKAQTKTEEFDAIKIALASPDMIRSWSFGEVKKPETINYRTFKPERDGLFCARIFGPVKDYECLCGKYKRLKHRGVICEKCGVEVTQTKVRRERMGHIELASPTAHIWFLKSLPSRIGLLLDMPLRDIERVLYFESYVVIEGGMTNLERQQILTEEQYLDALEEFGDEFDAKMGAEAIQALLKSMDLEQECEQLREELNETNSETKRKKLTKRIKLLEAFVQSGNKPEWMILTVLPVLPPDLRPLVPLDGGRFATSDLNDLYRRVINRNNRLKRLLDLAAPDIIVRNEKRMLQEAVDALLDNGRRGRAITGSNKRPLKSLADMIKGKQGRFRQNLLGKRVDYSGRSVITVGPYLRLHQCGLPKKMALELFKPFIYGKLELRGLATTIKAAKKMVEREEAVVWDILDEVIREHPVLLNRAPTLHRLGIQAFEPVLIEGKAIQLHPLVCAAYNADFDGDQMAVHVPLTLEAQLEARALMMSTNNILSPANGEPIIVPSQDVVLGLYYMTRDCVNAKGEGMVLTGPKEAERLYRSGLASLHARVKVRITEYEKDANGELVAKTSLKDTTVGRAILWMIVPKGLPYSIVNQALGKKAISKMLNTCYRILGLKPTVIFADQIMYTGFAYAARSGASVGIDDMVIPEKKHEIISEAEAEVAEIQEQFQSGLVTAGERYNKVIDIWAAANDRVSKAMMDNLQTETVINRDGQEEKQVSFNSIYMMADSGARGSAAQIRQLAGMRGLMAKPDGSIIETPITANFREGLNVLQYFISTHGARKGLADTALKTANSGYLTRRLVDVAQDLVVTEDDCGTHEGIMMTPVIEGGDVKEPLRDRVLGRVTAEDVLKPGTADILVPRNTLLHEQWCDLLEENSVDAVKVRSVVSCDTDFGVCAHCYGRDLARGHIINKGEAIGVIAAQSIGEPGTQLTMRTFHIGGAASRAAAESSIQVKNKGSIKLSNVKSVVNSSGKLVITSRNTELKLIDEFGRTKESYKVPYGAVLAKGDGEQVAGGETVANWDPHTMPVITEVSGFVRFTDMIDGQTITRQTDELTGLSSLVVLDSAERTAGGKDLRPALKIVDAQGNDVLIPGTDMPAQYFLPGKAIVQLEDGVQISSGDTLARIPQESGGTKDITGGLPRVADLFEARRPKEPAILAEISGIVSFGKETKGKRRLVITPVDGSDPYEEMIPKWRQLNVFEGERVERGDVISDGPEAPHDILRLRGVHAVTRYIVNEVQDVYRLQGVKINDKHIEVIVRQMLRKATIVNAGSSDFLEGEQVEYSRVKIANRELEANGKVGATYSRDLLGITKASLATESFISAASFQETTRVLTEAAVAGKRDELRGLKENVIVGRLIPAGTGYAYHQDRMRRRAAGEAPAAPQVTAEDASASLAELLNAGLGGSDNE
Chain of RNAP secondary channel (P0A800 whole entry, further chain): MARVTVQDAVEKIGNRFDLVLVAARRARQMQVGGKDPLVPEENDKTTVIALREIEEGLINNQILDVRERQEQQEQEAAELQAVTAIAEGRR
Chain of RNAP secondary channel (P0A8V2 whole entry, further chain): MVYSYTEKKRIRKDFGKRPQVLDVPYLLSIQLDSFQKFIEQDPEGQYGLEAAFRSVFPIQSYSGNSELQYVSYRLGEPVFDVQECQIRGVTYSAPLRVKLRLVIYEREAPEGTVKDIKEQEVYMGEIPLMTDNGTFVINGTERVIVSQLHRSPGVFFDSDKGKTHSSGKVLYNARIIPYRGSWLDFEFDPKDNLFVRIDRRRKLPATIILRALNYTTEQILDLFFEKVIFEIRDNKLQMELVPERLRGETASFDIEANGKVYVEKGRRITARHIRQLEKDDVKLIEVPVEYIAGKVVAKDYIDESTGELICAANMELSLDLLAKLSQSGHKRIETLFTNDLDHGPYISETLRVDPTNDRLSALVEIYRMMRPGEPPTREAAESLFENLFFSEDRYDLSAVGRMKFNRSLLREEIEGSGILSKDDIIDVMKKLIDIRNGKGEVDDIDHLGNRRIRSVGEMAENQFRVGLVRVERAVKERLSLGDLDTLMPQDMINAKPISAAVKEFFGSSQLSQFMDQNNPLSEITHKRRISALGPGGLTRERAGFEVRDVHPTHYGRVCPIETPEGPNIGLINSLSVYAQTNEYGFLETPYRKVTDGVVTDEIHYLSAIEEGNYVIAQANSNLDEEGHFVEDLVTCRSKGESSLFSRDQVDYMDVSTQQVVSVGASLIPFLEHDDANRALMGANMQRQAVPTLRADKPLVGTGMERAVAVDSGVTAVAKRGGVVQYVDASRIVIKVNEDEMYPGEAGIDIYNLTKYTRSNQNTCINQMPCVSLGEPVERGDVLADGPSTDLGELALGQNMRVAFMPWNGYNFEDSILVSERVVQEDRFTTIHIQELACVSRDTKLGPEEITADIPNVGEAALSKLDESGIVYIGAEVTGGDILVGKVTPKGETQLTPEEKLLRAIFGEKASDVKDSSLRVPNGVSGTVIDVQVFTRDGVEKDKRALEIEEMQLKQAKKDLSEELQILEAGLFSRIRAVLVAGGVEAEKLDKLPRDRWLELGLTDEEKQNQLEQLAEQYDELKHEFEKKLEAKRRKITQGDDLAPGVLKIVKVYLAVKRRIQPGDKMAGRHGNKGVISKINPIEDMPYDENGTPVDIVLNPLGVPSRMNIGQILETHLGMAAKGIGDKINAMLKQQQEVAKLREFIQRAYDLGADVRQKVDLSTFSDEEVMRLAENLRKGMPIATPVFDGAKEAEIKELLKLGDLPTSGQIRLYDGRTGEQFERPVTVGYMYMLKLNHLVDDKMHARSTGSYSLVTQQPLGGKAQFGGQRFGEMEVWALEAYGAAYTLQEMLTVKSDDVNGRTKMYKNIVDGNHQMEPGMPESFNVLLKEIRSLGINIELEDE
Description: The results of Yuzenkova et al., (2002) J. Biol. Chem. 277, 50867-50875, although limited, also indicate that inhibition involves a multi-residue determinant within the RNAP secondary channel (five sites for substitutions conferring MccJ25-resistance). […] The RNAP secondary channel is a 25 Å long, ˜10-15 Å wide, fully enclosed tunnel through which NTPs must pass to access the RNAP active-center and NTP binding site (Zhang et al., (1999) Cell 98, 811-824; Cramer et al., (2001) Science 292, 1863-1876; and Ebright (2000) J. Mol. Biol. 304, 687-689).

CC[C@H](C)[C@H](NC(=O)CNC(=O)[C@@H](NC(=O)[C@H](Cc1ccccc1)NC(=O)[C@H](Cc1ccc(O)cc1)NC(=O)[C@@H]1CCC(=O)NCC(=O)NCC(=O)N[C@@H](C)C(=O)NCC(=O)N[C@@H](Cc2c[nH]cn2)C(=O)N[C@@H](C(C)C)C(=O)N2CCC[C@H]2C(=O)N1)C(C)C)C(=O)NCC(=O)N[C@H](C(=O)N1CCC[C@H]1C(=O)N[C@H](C(=O)N[C@@H](CO)C(=O)N[C@@H](Cc1ccccc1)C(=O)N[C@@H](Cc1ccc(O)cc1)C(=O)NCC(=O)O)[C@@H](C)CC)[C@@H](C)O [MccJ25] (HELM PEPTIDE1{G.G.A.G.H.V.P.E.Y.F.V.G.I.G.T.P.I.S.F.Y.G}$PEPTIDE1,PEPTIDE1,1:R1-8:R3$$$V2.0)
1 mg/mi: MBC (minimum bacteriocidal concentration) ([1]; β′ 498 Pro->Gln) | MBC (minimum bacteriocidal concentration) ([1]; β′ 498 Pro->Leu) | MBC (minimum bacteriocidal concentration) ([1]; β′ 684 Asp->Ala) | MBC (minimum bacteriocidal concentration) ([1]; β′ 735 Ala->Δ) | MBC (minimum bacteriocidal concentration) ([1]; β′ 777 His->Tyr) | MBC (minimum bacteriocidal concentration) ([1]; β′ 779 Ala->Thr) | MBC (minimum bacteriocidal concentration) ([1]; β′ 780 Arg->Cys) | MBC (minimum bacteriocidal concentration) ([1]; β′ 782 Gly->Ala) | MBC (minimum bacteriocidal concentration) ([1]; β′ 788 Leu->Met) | MBC (minimum bacteriocidal concentration) ([1]; β′ 789 Lys->Asn) | MBC (minimum bacteriocidal concentration) ([1]; β′ 789 Lys->Gln) | MBC (minimum bacteriocidal concentration) ([1]; β′ 790 Thr->Ala) | MBC (minimum bacteriocidal concentration) ([1]; β′ 790 Thr->Ile) | MBC (minimum bacteriocidal concentration) ([1]; β′ 927 Gly->Cys) | MBC (minimum bacteriocidal concentration) ([1]; β′ 927 Gly->Ser) | MBC (minimum bacteriocidal concentration) ([1]; β′ 930 Leu->Met) | MBC (minimum bacteriocidal concentration) ([1]; β′ 931 Thr->Ala) | MBC (minimum bacteriocidal concentration) ([1]; β′ 931 Thr->Ile) | MBC (minimum bacteriocidal concentration) ([1]; β′ 932 Met->Ile) | MBC (minimum bacteriocidal concentration) ([1]; β′ 933 Arg->Cys) | MBC (minimum bacteriocidal concentration) ([1]; β′ 1136 Gly->Cys) | MBC (minimum bacteriocidal concentration) ([1]; β′ 1137 Gly->Arg)
binds within the RNAP secondary channel: binding site on RNAP (RNAP secondary channel)
0.1 mg/mi: MBC (minimum bacteriocidal concentration) ([1]; β′ 732 Gly->Asp) | MBC (minimum bacteriocidal concentration) ([1]; β′ 733 Ser->Phe) | MBC (minimum bacteriocidal concentration) ([1]; β′ 733 Ser->Tyr) | MBC (minimum bacteriocidal concentration) ([1]; β′ 748 Ala->Pro) | MBC (minimum bacteriocidal concentration) ([1]; β′ 783 Leu->Pro) | MBC (minimum bacteriocidal concentration) ([1]; β′ 1241 Tyr->Cys) | MBC (minimum bacteriocidal concentration) ([1]; β′ 1241 Tyr->His) | MBC (minimum bacteriocidal concentration) ([1]; β′ 1241 Tyr->Ser) | MBC (minimum bacteriocidal concentration) ([1]; β′ 1244 Gln->Glu) | MBC (minimum bacteriocidal concentration) ([1]; β′ 1244 Gln->Pro) | MBC (minimum bacteriocidal concentration) ([1]; β′ 1247 Lys->Gln) | MBC (minimum bacteriocidal concentration) ([1]; β′ 1247 Lys->Glu) | MBC (minimum bacteriocidal concentration) ([1]; β′ 1248 lle->Ser) | MBC (minimum bacteriocidal concentration) ([1]; β′ multiple-substitution mutant 493 Pro->Thr, 498 Pro->Thr) | MBC (minimum bacteriocidal concentration) ([1]; β′ multiple-substitution mutant 732 Gly->Asp, 733 Ser->Ala) | MBC (minimum bacteriocidal concentration) ([1]; β′ multiple-substitution mutant 733 Ser->Val, 734 Ala->Gly)
0.5 mg/mi: MBC (minimum bacteriocidal concentration) ([1]; β′ 428 Thr->Asn) | MBC (minimum bacteriocidal concentration) ([1]; β′ 428 Thr->Ile) | MBC (minimum bacteriocidal concentration) ([1]; β′ 429 Leu->Gln) | MBC (minimum bacteriocidal concentration) ([1]; β′ 430 His->Tyr) | MBC (minimum bacteriocidal concentration) ([1]; β′ 503 Ser->Pro) | MBC (minimum bacteriocidal concentration) ([1]; β′ 503 Ser->Tyr) | MBC (minimum bacteriocidal concentration) ([1]; β′ 504 Gln->Arg) | MBC (minimum bacteriocidal concentration) ([1]; β′ 504 Gln->Glu) | MBC (minimum bacteriocidal concentration) ([1]; β′ 680 Asn->Lys) | MBC (minimum bacteriocidal concentration) ([1]; β′ 684 Asp->Glu) | MBC (minimum bacteriocidal concentration) ([1]; β′ 684 Asp->Tyr) | MBC (minimum bacteriocidal concentration) ([1]; β′ 684 Asp->Vai) | MBC (minimum bacteriocidal concentration) ([1]; β′ 733 Ser->Val) | MBC (minimum bacteriocidal concentration) ([1]; β′ 736 Gln->Pro) | MBC (minimum bacteriocidal concentration) ([1]; β′ 775 Ser->Cys) | MBC (minimum bacteriocidal concentration) ([1]; β′ 776 Thr->Ile) | MBC (minimum bacteriocidal concentration) ([1]; β′ 777 His->Pro) | MBC (minimum bacteriocidal concentration) ([1]; β′ 779 Ala->Gly) | MBC (minimum bacteriocidal concentration) ([1]; β′ 779 Ala->Pro) | MBC (minimum bacteriocidal concentration) ([1]; β′ 784 Ala->Glu) | MBC (minimum bacteriocidal concentration) ([1]; β′ 785 Asp->Gly) | MBC (minimum bacteriocidal concentration) ([1]; β′ 786 Thr->Ala) | MBC (minimum bacteriocidal concentration) ([1]; β′ 786 Thr->Ile) | MBC (minimum bacteriocidal concentration) ([1]; β′ 789 Lys->Arg) | MBC (minimum bacteriocidal concentration) ([1]; β′ 790 Thr->Asn) | MBC (minimum bacteriocidal concentration) ([1]; β′ 790 Thr->Ser) | MBC (minimum bacteriocidal concentration) ([1]; β′ 922 Cys->Tyr) | MBC (minimum bacteriocidal concentration) ([1]; β′ 926 Pro->Ser) | MBC (minimum bacteriocidal concentration) ([1]; β′ 1136 Gly->Ala) | MBC (minimum bacteriocidal concentration) ([1]; β′ 1137 Gly->Aia) | MBC (minimum bacteriocidal concentration) ([1]; β′ 1240 Val->Glu) | MBC (minimum bacteriocidal concentration) ([1]; β′ 1244 Gln->Leu) | MBC (minimum bacteriocidal concentration) ([1]; β′ multiple-substitution mutant 732 Gly->Asp, 735 Gly->Thr) | MBC (minimum bacteriocidal concentration) ([1]; β′ multiple-substitution mutant 777 His->Ser, 778 Gly->Ala)
0.05 mg/mi: MBC (minimum bacteriocidal concentration) ([1]; β′ 508 Leu->Val) | MBC (minimum bacteriocidal concentration) ([1]; β′ 738 Arg->Leu) | MBC (minimum bacteriocidal concentration) ([1]; β′ 744 Arg->His) | MBC (minimum bacteriocidal concentration) ([1]; β′ 744 Arg->Pro)
≥ 50 fold: increase in MBC ([1]; 18 of 22 MccJ25-resistant mutants from random mutagenesis) | increase in MBC ([1]; all 22 MccJ25-resistant mutants from random mutagenesis)
